Values of other authors as cited in patent EP3072528B1, “COMPOSITION COMPRISING VEMURAFENIB AND CATIONIC COPOLYMER BASED ON METHACRYLATES” (ratiopharm GmbH, priority 2015, dated 2016).

Conditions: reported; BCS IV compound

solubility in aqueous and physiological solvents: practically insoluble
SMILES: CCCS(=O)(=O)Nc1ccc(F)c(C(=O)c2c[nH]c3ncc(-c4ccc(Cl)cc4)cc23)c1F [Vemurafenib base, N-(3-{[5-(4-chlorophenyl)-1H-pyrrolo[2,3-b]pyridin-3-yl]carbonyl}-2,4-difluorophenyl)propane-1-sulfonamide]
